For two molecules, IC50 and Activity results are on record in ChEMBL document CHEMBL4622876, “Total Synthesis and Antimalarial Activity of Dominicin, a Cyclic Octapeptide from a Marine Sponge” (J Nat Prod, 2020).

Structures are written as SMILES. pIC50: −log10 of the molar value. Where a SMILES comes first, the peptide text is derived from it.

Series [1] concerns Plasmodium falciparum. The series is described as follows: Antiplasmodial activity against Plasmodium falciparum. Format: functional, organism-based.
The subject of series [2] is Plasmodium falciparum. Nature of the series: Antiplasmodial activity against D-sorbitol synchronized ring stage chloroquine/mefloquine/pyrimethamine-resistant Plasmodium falciparum Dd2 after 72 hrs. In kind it is functional, organism-based. The conditions noted are these: Dd2, 72 h.
For series [3], the system named is Plasmodium falciparum. Nature of the series: Antiplasmodial activity against D-sorbitol synchronized ring stage Plasmodium falciparum 3D7 after 72 hrs. Format: functional, organism-based. Particulars: 3D7, 72 h.
The test system of the next series is Erythrocyte. The series is described as follows: Hemolytic activity in human RBC assessed as release of hemoglobin at 0.78 nM to 26 uM incubated for 72 hrs. Format: ADME, cell-based. The conditions noted are these: 0.00078 µM.

Broadly, the pIC50 is −log10 of the IC50, conventionally taken in molar units. The low end stands for a high IC50, the high end for a low IC50. Consider `C[C@@H](O)[C@@H]1NC(=O)CNC(=O)[C@H](Cc2ccccc2)NC(=O)[C@H](Cc2ccccc2)NC(=O)CNC(=O)[C@H](Cc2ccccc2)NC(=O)[C@H](Cc2ccccc2)NC1=O` (cyclo(FFGFFGT)), for which, in the series on Plasmodium falciparum [1], the negative logarithm of the IC50 (pIC50) was 5.66.
Consider `CC[C@H](C)[C@@H]1NC(=O)[C@H]([C@@H](C)CC)NC(=O)[C@H]([C@@H](C)CC)NC(=O)[C@@H]2CCCN2C(=O)[C@H]([C@@H](C)O)NC(=O)[C@@H]2CCCN2C(=O)[C@@H]2CCCN2C(=O)[C@H](CC(C)C)NC1=O` (cyclo(IIILPPTP)), for which the negative logarithm of the IC50 (pIC50) is 5.74 with Plasmodium falciparum [2] and 5.44 in the series on Plasmodium falciparum [3]. For the same molecule, in the series on Erythrocyte, the Activity entry is reported as “Non-Toxic”.
